Laboratory results: patent US10813956B2, “Methods for making and using antimicrobial peptides” (REGENTS OF THE UNIVERSITY OF MINNESOTA, priority 2012, dated 2020)
Converted amounts (≈) assume the structure as drawn. “Also recorded” adds a separate entry of the source. Residues, ends and D or L forms follow the SMILES beside them.

Assays:
[1] = tested on: L. lactis IL1403; assay: MIC of synthetic AMPs, liquid growth inhibition microdilution assay; format: cell-based, Lactococcus lactis; conditions: synthetic peptide; for L. lactis growth inhibition: all concentrations tested (up to 1 mg/ml)
Method: (§1) MICs of the synthetic AMPs were determined in triplicate by a liquid growth inhibition microdilution assays in flat-bottom sterile polypropylene 96-well plates (Maxisorp, Nunc, Roskilde, Denmark), in a final volume of 150 μl. The bacteria were diluted 2% in fresh media and grown to an OD600=0.5±0.05 (OD600=1≈10^9 cells/ml). The cells were diluted 50-fold to 10^7 cells/ml in fresh media. The AMP stocks were serially diluted (150 μl/well) in liquid growth media in a 96-well plate, covering a concentration range of 1,000 μg/ml-1 ng/ml. Briefly, 150 μl of the serially diluted AMPs were inoculated with 5 μl of the bacterial strains to achieve a final indicator concentration of 3×10^5 cells/ml. For each strain a row with no peptide was included as growth control, and for each test a row of medium-only wells was included as a sterility control. Plates were then incubated at 37° C. for 16-20 h without shaking, and growth inhibition was assessed measuring OD600 using a microplate reader (SpectraMax® Plus384; Molecular Devices, Sunnyvale, Calif., USA). MICs were identified as the lowest antimicrobial concentration where the OD600 […].

[2] = tested on: Salmonella; assay: Antimicrobial activity of supernatants from recombinant L. lactis (CFU/ml and OD600); format: cell-based
Method: (§2) The loss of cell viability was monitored to determine the antimicrobial activity of the supernatants from the recombinant L. lactis strains. Briefly, 0.3 ml of fresh medium, individually inoculated with the target strains, was added to tubes containing 0.7 ml of the supernatants, to reach a final concentration of 1×10^3 cells/ml. As a control, a supernatant sample from the L. lactis strain containing only the expression vector pMSP3545 (C-SN) was used. Tubes were incubated at 37° C. with agitation. Samples were taken at 30 min, 2 and 6 h, and the number of colony forming units per ml (CFU/ml) was determined by plating 25 μl on LB agar plates. The plates were incubated for 16 h at 37° C., and the number of viable cells was assessed by counting CFUs. Additionally, the OD600 was monitored up to 15 h post-inoculation to follow the influence of AMPs on culture growth.
(§3) Growth of pathogenic and non-pathogenic E. coli strains was assessed in medium containing these AMP-SNs while only pathogenic Salmonella strains were tested. In all cases, AMP-SNs diluted 7:3 with LB were inoculated with each indicator strain and growth was monitored spectrophotometrically at 600 nm for 15 hr.

[3] = tested on: S. infantis; assay: Antimicrobial activity of supernatants from recombinant L. lactis (culture titer); format: cell-based, Salmonella infantis; conditions: FIG. 3a; by 2 h post-inoculation
Method: as §2, §3

[4] = tested on: S. typhimurium; assay: as above; format: cell-based, Salmonella typhimurium; conditions: FIG. 3a; by 2 h post-inoculation
Method: as §2, §3

[5] = tested on: E. coli; format: cell-based, Escherichia coli
Method: as §1

[6] = tested on: E. coli; assay: Antimicrobial activity of supernatants from recombinant L. lactis (CFU/ml and OD600); format: cell-based, Escherichia coli; conditions: 6 h post-inoculation; supernatant of recombinant L. lactis; pathogenic and non-pathogenic E. coli
Method: as §2, §3

Compound | L. lactis growth inhibition [1] | Salmonella growth inhibition at longer times ([2]; 10-15 h post-inoculation, versus C-SN) | S. infantis culture density reduction relative to C-SN [3] | S. typhimurium culture density reduction relative to C-SN [4] | MIC against indicator E. coli strains [5] | Concentration up to which L. lactis remained viable ([1]; highest concentration tested) | E. coli culture density/concentration reduction relative to C-SN [6] | Salmonella growth (rate) reduction relative to C-SN ([2]; 10 to 15 h post-inoculation) | S. infantis culture density/growth reduction relative to C-SN (fraction) [3]
CC(C)C[C@H](NC(=O)[C@H](Cc1ccc(O)cc1)NC(=O)[C@@H]1CCCN1C(=O)[C@H](CCCNC(=N)N)NC(=O)[C@@H]1CCCN1C(=O)[C@H](CCCCN)NC(=O)[C@H](CC(=O)O)NC(=O)[C@@H]1CCCN1C(=O)[C@@H](N)CCCNC(=N)N)C(=O)N1CCC[C@H]1C(=O)N[C@@H](CCCNC(=N)N)C(=O)N1CCC[C@H]1C(=O)N[C@@H](CCCNC(=N)N)C(=O)N1CCC[C@H]1C(=O)N1CCC[C@H]1C(=O)N[C@@H](CCCNC(=N)N)C(=O)N1CCC[C@H]1C(=O)N[C@H](C(=O)N[C@@H](CCCNC(=N)N)C(=O)O)C(C)C [A3APO, A3APO (single chain)] (H-RPDKPRPYLPRPRPPRPVR-OH; N-terminus and C-terminus assumed) | not inhibited; also recorded: not achieved | not observed | 20 fold | 4 fold | – | – | – | – | –
CC[C@H](C)[C@H](NC(=O)CNC(=O)[C@H](CCCCN)NC(=O)[C@@H](NC(=O)[C@H](CC(C)C)NC(=O)[C@H](CO)NC(=O)CNC(=O)[C@H](CC(C)C)NC(=O)CNC(=O)[C@H](C)NC(=O)[C@H](CCCCN)NC(=O)[C@H](Cc1ccccc1)NC(=O)[C@@H](NC(=O)[C@H](CC(=O)O)NC(=O)[C@H](CCCCN)NC(=O)[C@H](CC(C)C)NC(=O)CN)[C@@H](C)CC)C(C)C)C(=O)N[C@@H](C)C(=O)N[C@@H](C)C(=O)N[C@@H](Cc1c[nH]cn1)C(=O)N[C@H](C(=O)N[C@@H](C)C(=O)N[C@@H](CC(N)=O)C(=O)O)C(C)C [Alyteserin, Alyteserin-1a] (H-GLKDIFKAGLGSLVKGIAAHVAN-OH; N-terminus and C-terminus assumed) | not achieved | – | – | 10 fold | 500 µg/mL (≈ 219 µM) | > 1 mg/mL | 20 fold | 15% | about one-half
